pIC50: −log10 of the molar value.
Key:
[1] = test system: Plasmodium falciparum; assay: Antiplasmodial activity against chloroquine-resistant Plasmodium falciparum Dd2 by [G-3H]hypoxanthine uptake; type: functional, organism-based
[2] = test system: Plasmodium falciparum; assay: Antiplasmodial activity against chloroquine-sensitive Plasmodium falciparum 3D7 by [G-3H]hypoxanthine uptake; type: functional, organism-based
[3] = Inhibition of phytohemagglutininin A-induced human lymphocyte proliferation assessed as radiolabeled thymidine uptake; type: cell-based
[4] = test system: Leishmania major; assay: Antileishmanial activity against Leishmania major promastigotes assessed as inhibition of [3H]thymidine incorporation after 18 hrs by scintillation counting; type: functional, organism-based
[5] = Inhibition of phytohemagglutininin A-induced human lymphocyte proliferation assessed as radiolabeled thymidine uptake at < 300 uM; type: cell-based

SMILES	pIC50 [1]	pIC50 [2]	pIC50 [3]	pIC50 [4]	Activity [5]
Cc1cccc2oc(=O)c3c(c12)O[C@H](C)[C@@]3(C)CC(=O)[C@@H]1OC1(C)C [CYCLOISOBRACHYCOUMARINONE EPOXIDE]	4.27	3.95	2.74	4.87	
Cc1cccc2oc(=O)c3c(c12)O[C@@H](C)[C@@]3(C)CC(=O)[C@@H]1OC1(C)C	4.27	3.80	3.50	4.43	Not Active

— ChEMBL document CHEMBL1146425, “Two new antiprotozoal 5-methylcoumarins from Vernonia brachycalyx” (J Nat Prod, 1997)
